Experimental findings from patent US10894784B2, “Heteroarylbenzimidazole compounds” (BAYER PHARMA AKTIENGESELLSCHAFT, priority 2015, dated 2021) are described below.

The test deals with TBK1 (Homo sapiens (Human), UniProt Q9UHD2). Put plainly: TBK1 low ATP kinase assay (in vitro assay 1). Format: biochemical. Conditions: in vitro assay 1, read-out: TBK1 low ATP kinase assay IC50.
Chain of TBK1 (Q9UHD2 whole entry): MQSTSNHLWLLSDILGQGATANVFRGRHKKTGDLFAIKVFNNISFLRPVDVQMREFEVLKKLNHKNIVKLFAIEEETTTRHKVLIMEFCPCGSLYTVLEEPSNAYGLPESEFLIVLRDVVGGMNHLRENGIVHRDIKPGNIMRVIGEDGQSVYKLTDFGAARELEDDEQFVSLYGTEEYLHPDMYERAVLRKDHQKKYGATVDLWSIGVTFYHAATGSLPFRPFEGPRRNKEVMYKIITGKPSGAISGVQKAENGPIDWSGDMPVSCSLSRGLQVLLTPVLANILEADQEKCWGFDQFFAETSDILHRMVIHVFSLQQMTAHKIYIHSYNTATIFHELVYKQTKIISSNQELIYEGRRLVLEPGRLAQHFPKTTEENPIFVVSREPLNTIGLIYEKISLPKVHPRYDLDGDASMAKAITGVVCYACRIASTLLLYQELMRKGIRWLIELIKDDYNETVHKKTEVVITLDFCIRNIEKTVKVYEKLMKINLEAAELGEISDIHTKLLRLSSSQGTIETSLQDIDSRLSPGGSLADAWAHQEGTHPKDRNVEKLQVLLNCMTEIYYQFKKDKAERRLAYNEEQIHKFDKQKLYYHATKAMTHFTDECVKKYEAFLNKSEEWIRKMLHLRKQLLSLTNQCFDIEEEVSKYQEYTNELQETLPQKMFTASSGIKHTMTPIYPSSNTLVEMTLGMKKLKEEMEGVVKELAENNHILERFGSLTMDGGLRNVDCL
Usually IC50 stands for the concentration that gives 50% inhibition. Regarding `O=C(C1CCC1)N1CCN(Cc2ccnc(Nc3nc4ccc(-c5ccnc(OCC6CC6)n5)cc4[nH]3)c2)CC1` [Example 62.01.02, cyclobutyl(4-{[2-({6-[2-(cyclopropylmethoxy)pyrimidin-4-yl]-1H-benzimidazol-2-yl}amino)pyridin-4-yl]methyl}piperazin-1-yl)methanone], the IC50 stood at 9.54 nM.

Turning to `N#Cc1cnccc1-c1ccc2nc(Nc3cc(CN4CCN(C(=O)CC(F)(F)F)CC4)ccn3)[nH]c2c1` [Example 133.02, 4-{2-[(4-{[4-(3,3,3-trifluoropropanoyl)piperazin-1-yl]methyl}pyridin-2-yl)amino]-1H-benzimidazol-6-yl}pyridine-3-carbonitrile], the IC50 was determined as 140 nM.

Turning to `CN(c1cc(-c2ccc3nc(Nc4cc(CN5CCN(C(=O)CC(F)(F)F)CC5)ccn4)[nH]c3c2)ncn1)C1CCC1` [Example 156.02, 1-[4-({2-[(6-{6-[cyclobutyl(methyl)amino]pyrimidin-4-yl}-1H-benzimidazol-2-yl)amino]pyridin-4-yl}methyl)piperazin-1-yl]-3,3,3-trifluoropropan-1-one], the IC50 stood at 9.3 nM. For `COc1cnc(C)cc1-c1ccc2nc(Nc3cc(CN4CCN(C(=O)C5CC5)CC4)ccn3)[nH]c2c1` [Example 07.01, cyclopropyl{4-[(2-{[6-(5-methoxy-2-methylpyridin-4-yl)-1H-benzimidazol-2-yl]amino}pyridin-4-yl)methyl]piperazin-1-yl}methanone] the value was 224 nM; for `COc1cnccc1-c1ccc2nc(Nc3cc(CN4CCN(C(=O)C5CC5(F)F)CC4)ccn3)[nH]c2c1` (racemic) [Example 04.08, ((1RS)-2,2-difluorocyclopropyl){4-[(2-{[6-(3-methoxypyridin-4-yl)-1H-benzimidazol-2-yl]amino}pyridin-4-yl)methyl]piperazin-1-yl}methanone], 13.8 nM; for `COc1cc(-c2ccc3nc(Nc4cc(CN5CCN(C(=O)C6CC6)CC5)ccn4)[nH]c3c2OCC(C)C)ccn1` [Example 49.01, cyclopropyl{4-[(2-{[6-(2-methoxypyridin-4-yl)-7-(2-methylpropoxy)-1H-benzimidazol-2-yl]amino}pyridin-4-yl)methyl]piperazin-1-yl}methanone], 217 nM. With `COc1cc(-c2ccc3nc(Nc4cc(CN5CCN(C(=O)OC(C)(C)C)CC5)ccn4)[nH]c3c2)ncn1` [Example 34.01.01, tert-butyl 4-[(2-{[6-(6-methoxypyrimidin-4-yl)-1H-benzimidazol-2-yl]amino}pyridin-4-yl)methyl]piperazine-1-carboxylate], the IC50 amounted to 50.6 nM. `CC(C)(C)OC(=O)N1CCN(Cc2ccnc(Nc3nc4ccc(-c5ncccn5)cc4[nH]3)c2)CC1` [Example 180.01, tert-butyl 4-[(2-{[6-(pyrimidin-2-yl)-1H-benzimidazol-2-yl]amino}pyridin-4-yl)methyl]piperazine-1-carboxylate]: the IC50 is 576 nM.

Turning to `CC(c1ccnc(Nc2nc3ccc(-c4cnn(CC5CC5)c4)cc3[nH]2)c1)N1CCN(C(=O)C2CC2)CC1` (single isomer, unassigned) [Example 39.02.03, cyclopropyl(4-{(1R or 1S)-1-[2-({6-[1-(cyclopropylmethyl)-1H-pyrazol-4-yl]-1H-benzimidazol-2-yl}amino)pyridin-4-yl]ethyl}piperazin-1-yl)methanone], the IC50 turned out to be 1.66 nM. As for `O=C(C1CC1)N1CCN(Cc2ccnc(Nc3nc4ccc(-c5ccncn5)cc4[nH]3)c2)CC1` [Example 23.01.02, cyclopropyl{4-[(2-{[6-(pyrimidin-4-yl)-1H-benzimidazol-2-yl]amino}pyridin-4-yl)methyl]piperazin-1-yl}methanone], the IC50 came to 22.1 nM. As for `O=C(C1CC1)N1CCN(Cc2ccnc(Nc3nc4ccc(-c5ncnc6ccoc56)cc4[nH]3)c2)CC1` [Example 168.03, cyclopropyl{4-[(2-{[6-(furo[3,2-d]pyrimidin-4-yl)-1H-benzimidazol-2-yl]amino}pyridin-4-yl)methyl]piperazin-1-yl}methanone], the IC50 amounted to 7.12 nM. With `Cc1noc(-c2ccc3nc(Nc4cc(CN5CCN(c6ccc(C(F)(F)F)cn6)CC5)ccn4)[nH]c3c2)n1` [Example 101.08, 6-(3-methyl-1,2,4-oxadiazol-5-yl)-N-[4-({4-[5-(trifluoromethyl)pyridin-2-yl]piperazin-1-yl}methyl)pyridin-2-yl]-1H-benzimidazol-2-amine], the IC50 was greater than 20000 nM. Consider `CC(C)N(C)c1cc(-c2ccc3nc(Nc4cc(CN5CCN(C(=O)C6CC6)CC5)ccn4)[nH]c3c2)ncn1` [Example 153.03, cyclopropyl[4-({2-[(6-{6-[methyl(propan-2-yl)amino]pyrimidin-4-yl}-1H-benzimidazol-2-yl)amino]pyridin-4-yl}methyl)piperazin-1-yl]methanone], for which the IC50 was 5 nM. For `CCn1cc(-c2ccc3nc(Nc4cc(CN5CCN(C(=O)CC(F)(F)F)CC5)ccn4)[nH]c3c2)cn1` [Example 38.02, 1-{4-[(2-{[6-(1-ethyl-1H-pyrazol-4-yl)-1H-benzimidazol-2-yl]amino}pyridin-4-yl)methyl]piperazin-1-yl}-3,3,3-trifluoropropan-1-one], the concentration for half-maximal inhibition (IC50) turned out to be 50.4 nM. With `Cc1noc(-c2ccc3nc(Nc4cc(CN5CCN(C(=O)C6CC6)C[C@H]5C)ccn4)[nH]c3c2)n1` [Example 16.03.04, cyclopropyl{(3R)-3-methyl-4-[(2-{[6-(3-methyl-1,2,4-oxadiazol-5-yl)-1H-benzimidazol-2-yl]amino}pyridin-4-yl)methyl]piperazin-1-yl}methanone] the figure was 54.6 nM; with `COc1cc(-c2ccc3nc(Nc4cc(CN5CCN(C(=O)CC(F)(F)F)CC5)ccn4)[nH]c3c2)ccn1` [Example 02.03, 3,3,3-trifluoro-1-{4-[(2-{[6-(2-methoxypyridin-4-yl)-1H-benzimidazol-2-yl]amino}pyridin-4-yl)methyl]piperazin-1-yl}propan-1-one], 36.8 nM; with `Cc1cccc(N2CCN(Cc3ccnc(Nc4nc5ccc(-c6nc(C)no6)cc5[nH]4)c3)CC2)c1` [Example 101.03, 6-(3-methyl-1,2,4-oxadiazol-5-yl)-N-(4-{[4-(3-methylphenyl)piperazin-1-yl]methyl}pyridin-2-yl)-1H-benzimidazol-2-amine], 690 nM.

Regarding `COc1cnccc1-c1ccc2nc(Nc3cc(CN4CCN(C(=O)C5CCC5)CC4)ccn3)[nH]c2c1OCC(C)C` [Example 50.03, cyclobutyl{4-[(2-{[6-(3-methoxypyridin-4-yl)-7-(2-methylpropoxy)-1H-benzimidazol-2-yl]amino}pyridin-4-yl)methyl]piperazin-1-yl}methanone], the IC50 stood at 645 nM. With `CC(c1ccnc(Nc2nc3ccc(-c4cc(C(F)(F)F)ncn4)c(F)c3[nH]2)c1)N1CCN(C(=O)C2CC2)CC1` (single isomer, unassigned) [Example 173.03, cyclopropyl(4-{(1R or 1S)-1-[2-({7-fluoro-6-[6-(trifluoromethyl)pyrimidin-4-yl]-1H-benzimidazol-2-yl}amino)pyridin-4-yl]ethyl}piperazin-1-yl)methanone] the figure was 50.6 nM.
